Experimental data: patent US20030199457A1, “Prevention and treatment of thromboembolic disorders associated with arterial & venous thrombosis” (priority 2002, published 2003)

B1: Abciximab: monoclonal antibody for GPIIb/IIIa (c7E3 Fab) (antibody, chains of the INN, looked up, V domains shown)
VH: EVQLQQSGTVLARPGASVKMSCEASGYTFTNYWMHWVKQRPGQGLEWIGAIYPGNSDTSYIQKFKGKAKLTAVTSTTSVYMELSSLTNEDSAVYYCTLYDGYYVFAYWGQGTLVTVSA
VL: EIVLTQSPVTLSVTPGDSVSLSCRASRDISNNLHWFQQTSHESPRLLIKYASQSMSGIPSRFSGSGSGTDFTLSINSVETEDFGMYFCQQTNSWPYTFGGGTKLEIK
modifications: Fab

How the values were obtained:
[1] = system: thrombosis; details: U.S. Pat. No. 6,103,705, cited from earlier work
[2] = system: TF-induced clot formation/strength; test: Tissue factor-triggered thrombelastography (TEG), clot strength; format: cell-based; details: GPIIb/IIIa antagonists added to TEG cup with CaCl2 and TF; mimics platelet removal from whole blood
Method: Thrombelastography: Clot formation was monitored at 37° C. in an oscillating plastic cylindrical cuvette (“cup”) and a coaxially suspended stationary piston (“pin”) with a 1 mm clearance between the surfaces, using a computerized Thrombelastograph (CTEG Model 3000, Haemoscope, Skokie, Ill.) as described by Mousa et al., Athero Thromb Vasc Biol 2000. The cup oscillates 4°45′ ( 1/12 radian) in either direction every 4.5 seconds, with a 1 second mid-cycle stationary period; resulting in a frequency of 0.1 Hz and a maximal shear rate of 0.1 per second. The pin is suspended by a torsion wire that acts as a torque transducer. […] The torque experienced by the pin (relative to the cup's oscillation) is plotted as a function of time (Essel et al., J Cardiovascular Anesth., 7:410-415, 1993; Mousa et al., Arteriosclerosis Thromb Vasc Biol., 20:1162-1167, 2000). The amplitude on the TEG tracing is a measure of the rigidity of the clot; the peak strength or the shear elastic modulus attained by the clot, G, is a function of clot rigidity and can be calculated from the maximal amplitude (MA) of the TEG (Mousa et al., Arteriosclerosis Thromb Vasc Biol., 20:1162-1167, 2000).
Platelet Contribution to Clot Strength: To assess the effect of the TF modification on peak clot strength (G) was measured with and without the addition of TF in paired samples of WB and PRP. To document the contribution of activated platelets to the elastic modulus of fibrin clots, the effect of platelet number was measured by serially diluting PRP with PPP. The platelet count of each dilution was measured before performing TEG. Tissue factor-triggered TEG was performed with increasing concentrations added to the TEG cups. […] The Thrombelastograph maximum amplitude (MA) for platelets MA (PLT)) was calculated by subtracting the MA from a platelet-poor plasma (PPP) sample MA (PPP) determined in one TEG well from that of whole blood MA (WB) run simultaneously in the second TEG well.

[3] = system: platelet aggregation; details: combined with LMWH; 0.5 IU/ml thrombin; cited from earlier work

Row | Molecule | anti-thrombotic effect on co-administration with the LMWH enoxaparin ([1]; intravenous, sub-effective or reduced levels) | anti-thrombotic effect on co-administration with standard heparin ([1]; same reduced level of the GPIIb/IIIa antagonist) | maximal blockade (clot strength) [2] [%] | effect of sub-therapeutic concentrations on the dose-response relationship of LMWH [3]
1 | CCCCS(=O)(=O)N[C@@H](Cc1ccc(OCCCCC2CCNCC2)cc1)C(=O)O [BSPBPA] | enhanced anti-thrombotic effect | This was not the case | – | –
2 | CCCCOC(=O)N[C@@H](CNC(=O)C[C@H]1CC(c2ccc(C(=N)N)cc2)=NO1)C(=O)O [XV459] | – | – | 80 | –
3 | CCCCOC(=O)N[C@@H](CNC(=O)C[C@H]1CC(c2ccc(C(=N)N)cc2)=NO1)C(=O)OC [roxifiban] | – | – | 80 | significant enhancement (synergy) of anti-thrombotic efficacy
4 | B1 | – | – | 80 | significant enhancement (synergy) of anti-thrombotic efficacy
